One assay has as its target human PDE-5A1 (Homo sapiens (Human), UniProt O76074). Briefly: Human PDE-5A1 inhibition assay (fluorescence polarization, FAM-cGMP). The assay is classed as biochemical. Particulars: human PDE5A1, 100 nM FAM-cGMP, 60 minutes room temperature. An excerpt:
This example illustrates the in vitro inhibition of human PDE-5A1 by exemplary compounds of this disclosure (e.g., as described herein).
Sildenafil citrate (Catalog no. LKT-S3313, Axxora, San Diego, CA), Vardenafil hydrochloride trihydrate (Catalog no. SML2103, Sigma-Aldrich, St. Louis, MO), PDE Assay Buffer (Catalog no. 60393, BPS bioscience, San Diego, CA), PDE Binding Agent (Catalog no. 60390, BPS bioscience, San Diego, CA) and PDE Binding Agent Diluent (cGMP, Catalog no. 60392, BPS bioscience, San Diego, CA) were used for assays. Test compounds were supplied by Ildong Pharmaceuticals Co., Ltd.
The serial dilution of the compounds was first performed in 100% DMSO with the highest concentration at 1 mM and 0.1 mM. Each intermediate compound dilution (in 100% DMSO) will then get directly diluted 10× fold into assay buffer for 10% DMSO and 5 μL of the dilution was added to a 50 μL reaction so that the final concentration of DMSO is 1% in all reactions.
The enzymatic reactions were conducted at room temperature for 60 minutes in a 50 μL mixture containing PDE assay buffer, 100 nM FAM-cGMP, a PDE enzyme (Table 2) and the test compounds.
After enzymatic reaction, 100 μL of a binding solution (1:100 dilution of the binding agent with the binding agent diluent) was added to each reaction and the reaction was performed at room temperature for 60 minutes.
Fluorescence intensity was measured at excitation of 485 nm and an emission of 528 nm using a Tecan Infinite M1000 microplate reader.
PDE activity assays were performed in duplicate at each concentration. Fluorescence intensity is converted to fluorescence polarization using the Tecan Magellan6 software. The fluorescence polarization (FPt) in absence of the compound in each data set was defined as 100% activity. In the absence of PDE and the compound, the value fluorescent polarization (FPb) in each data set was defined as 0% activity. The percent activity in the presence of compound was calculated according to Equation 1:
[formula] where FP=the fluorescence polarization in the presence of the compound.
The values of % activity versus a series of compound concentrations were then plotted using non-linear regression analysis of Sigmoidal dose-response curve generated with Equation 2:
[formula] where Y=percent activity, B=minimum percent activity, T=maximum percent activity, X=logarithm of compound, and Hill Slope=slope factor or Hill coefficient. The IC50 value was determined by the concentration causing a half-maximal percent activity. Results

The target in another assay is androgen receptor (AR) (Homo sapiens (Human), UniProt P10275). The experiment in a line: Androgen receptor (AR) reporter assay, antagonist screen activated by R1881. The assay is classed as cell-based. The conditions noted are these: AR-UAS-bla GripTite 293 cells, antagonist mode, R1881 at EC80. The method, then:
The protocols and results of this Example were carried out and obtained by Thermofisher Scientific.
Test compounds were received at 1000× (or greater) of the desired starting concentration in 100% DMSO. If compounds were supplied at greater that 1000× concentration, an initial dilution is made in 100% DMSO to bring the compounds to 1000× concentration. The 1000× test compounds were serially diluted (10 point ½-log increments) in 100% DMSO.
The Substrate Loading Solution consists of three Life Technologies reagents: Solution A (10 mM LiveBLAzer™-FRET B/G Substrate), Solution B and Solution C.
Androgen Receptor (AR)—Antagonist Screen, Activated by R1881
AR-UAS-bla GripTite™ 293 cells were thawed and resuspended in Assay Media (DMEM phenol red free, 2% CD-treated FBS, 0.1 mM NEAA, 1 mM Sodium Pyruvate, 100 U/mL/100 μg/mL Pen/Strep) to a concentration of 312,500 cells/mL. 4 μL of a 10× serial dilution of Cyproterone Acetate (control antagonist starting concentration, 3,160 nM) or compounds are added to appropriate wells of a Poly-D-Lysine assay plate. 32 μL of cell suspension was added to the wells and pre-incubated at 37° C./5% CO2 in a humidified incubator with compounds and control antagonist titration for 30 minutes. 4 μL of 10× control agonist R1881 at the pre-determined EC80 concentration was added to wells containing the control antagonist or compounds. The plate was incubated for 16-24 hours at 37° C./5% CO2 in a humidified incubator. 8 μL of 1 μM Substrate Loading Solution is added to each well and the plate was incubated for 2 hours at room temperature. The plate was read on a fluorescence plate reader (Tecan Safire^2).
In general terms: In a reporter assay the amount or activity of a reporter protein is the signal.

The next assay deals with Human androgen receptors (Homo sapiens (Human), UniProt P10275, T878A). Briefly: Androgen receptor (AR) radioligand binding assay. The protocol: Methods employed in this study have been adapted from the following literature procedure.
Chain of Human androgen receptors (P10275 whole entry T878A): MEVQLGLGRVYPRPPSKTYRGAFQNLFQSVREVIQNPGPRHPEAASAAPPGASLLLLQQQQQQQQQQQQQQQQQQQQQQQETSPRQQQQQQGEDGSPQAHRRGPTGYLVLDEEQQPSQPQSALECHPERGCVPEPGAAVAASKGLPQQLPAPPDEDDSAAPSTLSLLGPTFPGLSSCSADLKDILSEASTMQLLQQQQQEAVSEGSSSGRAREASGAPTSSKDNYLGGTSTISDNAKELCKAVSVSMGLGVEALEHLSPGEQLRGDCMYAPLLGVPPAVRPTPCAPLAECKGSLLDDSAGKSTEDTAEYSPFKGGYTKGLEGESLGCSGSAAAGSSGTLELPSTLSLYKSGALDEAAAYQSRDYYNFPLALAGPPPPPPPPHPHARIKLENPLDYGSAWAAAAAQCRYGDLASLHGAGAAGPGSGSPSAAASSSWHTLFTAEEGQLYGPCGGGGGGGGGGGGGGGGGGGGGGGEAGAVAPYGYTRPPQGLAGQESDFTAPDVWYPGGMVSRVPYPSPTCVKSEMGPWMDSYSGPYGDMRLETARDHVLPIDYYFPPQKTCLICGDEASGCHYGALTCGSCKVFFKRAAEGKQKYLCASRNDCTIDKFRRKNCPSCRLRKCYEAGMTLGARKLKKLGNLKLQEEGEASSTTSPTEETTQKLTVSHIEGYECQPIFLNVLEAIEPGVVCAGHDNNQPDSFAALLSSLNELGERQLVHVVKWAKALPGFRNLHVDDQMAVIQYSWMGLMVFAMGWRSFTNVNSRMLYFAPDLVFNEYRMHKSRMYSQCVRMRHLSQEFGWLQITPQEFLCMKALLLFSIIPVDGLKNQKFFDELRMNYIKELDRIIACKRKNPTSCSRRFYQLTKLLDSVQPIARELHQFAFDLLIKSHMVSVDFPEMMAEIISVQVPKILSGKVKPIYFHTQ
Human androgen receptors obtained from human LNCaP cells are used in modified HEPES buffer pH 7.4. […] Non-specific binding is estimated in the presence of 1 μM testosterone. […] (See, e.g., Traish, A. M et al., Binding of 7α, 17α-dimethyl-19-nortestosterone (Mibolerone) to androgen and progesterone receptors in human and animal tissues. Endocrinology. 118(4): 1327-1333, 1986).
Compounds are screened at 10 μM.
Where presented, IC50 values were determined by a non-linear, least squares regression analysis using MathIQ™ (ID Business Solutions Ltd., UK).

[1] abbreviates: receptors from human LNCaP cells, 0.5 nM [3H]Methyltrienolone, 20 hours at 4° C., read-out: AR IC50.

pIC50: −log10 of the molar value. Where two headings read alike, the source gives them in different places.

Chain of androgen receptor (AR) (P10275 other isoform, or with tags, fused parts or gaps): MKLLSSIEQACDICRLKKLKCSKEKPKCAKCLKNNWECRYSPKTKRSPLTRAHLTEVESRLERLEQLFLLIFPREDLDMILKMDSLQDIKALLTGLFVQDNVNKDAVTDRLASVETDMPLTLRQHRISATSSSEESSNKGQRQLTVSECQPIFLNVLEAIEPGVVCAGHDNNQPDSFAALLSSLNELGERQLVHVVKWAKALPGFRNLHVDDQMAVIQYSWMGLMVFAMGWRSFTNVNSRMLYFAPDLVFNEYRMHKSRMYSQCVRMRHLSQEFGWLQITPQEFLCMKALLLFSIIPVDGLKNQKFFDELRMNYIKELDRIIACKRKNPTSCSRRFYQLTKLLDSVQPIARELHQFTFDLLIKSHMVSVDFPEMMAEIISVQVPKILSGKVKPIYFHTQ

One may read the IC50 as the midpoint of a concentration-inhibition curve. A lower IC50 goes with greater potency. A word on the pIC50: it is the negative decadic logarithm of the IC50, by convention in mol/L. With `CCCc1nc(C)c2c(=O)[nH]c(-c3cc(S(=O)(=O)NC4CC(=O)N(c5ccc(C#N)c(C(F)(F)F)c5)C4)ccc3OCC)nn12` (stereo not drawn) [Compound 33, N-(1-(4-cyano-3-(trifluoromethyl)phenyl)-5-oxopyrrolidin-3-yl)-4-ethoxy-3-(5-methyl-4-oxo-7-propyl-3,4-dihydroimidazo[5,1-f][1,2,4]triazin-2-yl)benzenesulfonamide], at human PDE-5A1, the IC50 was no more than 10 nM. The values for the negative logarithm of the IC50 (pIC50) on androgen receptor (AR) and on Human androgen receptors (setting [1]) were less than 7.00 and less than 6.70, respectively.

Regarding `CCCc1nc(C)c2c(=O)[nH]c(-c3cc(N4C(=S)N(c5ccc(C#N)c(C(F)(F)F)c5)C(=O)C45CCOC5)ccc3OCC)nn12` (stereo not drawn) [Compound 34, 4-(1-(4-ethoxy-3-(5-methyl-4-oxo-7-propyl-3,4-dihydroimidazo[5,1-f][1,2,4]triazin-2-yl)phenyl)-4-oxo-2-thioxo-7-oxa-1,3-diazaspiro[4.4]nonan-3-yl)-2-(trifluoromethyl)benzonitrile], the IC50 against human PDE-5A1 was no more than 10 nM. The figures for the pIC50 at androgen receptor (AR) and at Human androgen receptors were no less than 6.30 and 6.70 to 7.30, respectively.

`CCCc1nc(C)c2c(=O)[nH]c(-c3cc(N4C(=S)N(c5ccc(C#N)c(C(F)(F)F)c5)C(=O)C45CCCC5)ccc3OCC)nn12` [Compound 38, 4-(1-(4-ethoxy-3-(5-methyl-4-oxo-7-propyl-3,4-dihydroimidazo[5,1-f][1,2,4]triazin-2-yl)phenyl)-4-oxo-2-thioxo-1,3-diazaspiro[4.4]nonan-3-yl)-2-(trifluoromethyl)benzonitrile] yielded an IC50 against human PDE-5A1 of no more than 10 nM. In addition, the pIC50 at androgen receptor (AR) is no less than 6.30; at Human androgen receptors (setting [1]), greater than 7.30.

Turning to `CCCc1nc(C)c2c(=O)[nH]c(-c3cc(N4C(=S)N(c5ccc(C#N)c(C(F)(F)F)c5F)C(=O)C4(C)C)ccc3OCC)nn12` [Compound 47, 4-(3-(4-ethoxy-3-(5-methyl-4-oxo-7-propyl-3,4-dihydroimidazo[5,1-f][1,2,4]triazin-2-yl)phenyl)-4,4-dimethyl-5-oxo-2-thioxoimidazolidin-1-yl)-3-fluoro-2-(trifluoromethyl)benzonitrile], the IC50 on human PDE-5A1 is no more than 10 nM. Also, the pIC50 was no less than 6.30 against androgen receptor (AR) and greater than 7.30 on Human androgen receptors (setting [1]).

In turn, `CCCc1nc(C)c2c(=O)[nH]c(-c3cc(N4C(=S)N(c5ccc(C#N)c(C(F)(F)F)c5F)C(=O)C45CCC5)ccc3OCC)nn12` [Compound 48, 4-(5-(4-ethoxy-3-(5-methyl-4-oxo-7-propyl-3,4-dihydroimidazo[5,1-f][1,2,4]triazin-2-yl)phenyl)-8-oxo-6-thioxo-5,7-diazaspiro[3.4]octan-7-yl)-3-fluoro-2-(trifluoromethyl)benzonitrile] had an IC50 on human PDE-5A1 of no more than 10 nM. The negative-log IC50 (pIC50) is no less than 6.30 on androgen receptor (AR) and greater than 7.30 at Human androgen receptors (setting [1]).

In the case of `CCCc1nc(C)c2c(=O)[nH]c(-c3cc(N4C(=S)N(c5ccc(C#N)c(C(F)(F)F)c5F)C(=O)C45CCOC5)ccc3OCC)nn12` (stereo not drawn) [Compound 49, 4-(1-(4-ethoxy-3-(5-methyl-4-oxo-7-propyl-3,4-dihydroimidazo[5,1-f][1,2,4]triazin-2-yl)phenyl)-4-oxo-2-thioxo-7-oxa-1,3-diazaspiro[4.4]nonan-3-yl)-3-fluoro-2-(trifluoromethyl)benzonitrile], at human PDE-5A1, the half-inhibitory concentration (IC50) was no more than 10 nM. Besides, the negative logarithm of the IC50 (pIC50) against androgen receptor (AR) was 6.00 to 6.30; on Human androgen receptors (setting [1]) it was greater than 7.30.

Regarding `CCCc1nc(C)c2c(=O)[nH]c(-c3cc(N4C(=S)N(c5ccc(C#N)c(C(F)(F)F)c5F)C(=O)C45CCCC5)ccc3OCC)nn12` [Compound 50, 4-(1-(4-ethoxy-3-(5-methyl-4-oxo-7-propyl-3,4-dihydroimidazo[5,1-f][1,2,4]triazin-2-yl)phenyl)-4-oxo-2-thioxo-1,3-diazaspiro[4.4]nonan-3-yl)-3-fluoro-2-(trifluoromethyl)benzonitrile], the IC50 against human PDE-5A1 is no more than 10 nM. For the same compound, the pIC50 on androgen receptor (AR) is no less than 6.30; at Human androgen receptors (setting [1]), greater than 7.30.
